Results as given in patent US8697095B1, “Inhibition of replication of oncogenic herpesviruses” (priority 2004, dated 2014).
Where “and” joins values, the source holds several entries; their conditions need not be identical. Equal entries are not always repeated. Entries after “also recorded” stand apart in the source; their conditions may differ.

Legend:
MHV 68 = test: Cytopathic effect and virus yield reduction, MHV 68 in NIH3T12 cells; type: cell-based, murine gamma herpesvirus 68 (MHV-68)
[1] = test system: CMV immediate early promoter; test: Dual luciferase promoter assay, control CMV promoter in NIH3T12 cells; type: cell-based; settings: 5 μg/ml, 48 hours
Text: (§1) FIG. 3 is a table showing the relative luciferase activity of extracts from control and THC treated cells. […] cells co-transfected with MHV 68 ORF 50 plus CMV control (top rows). BCBL-1 cells were co-transfected with the KSHV ORF 50 plus CMV control (bottom rows). Data represents averages from three independent co-transfection experiments.
(§2) A DNA fragment corresponding to the promoter region upstream of the mapped mRNAs was cloned into the basic firefly luciferase vector (Promega, Inc, Madison Wis.) to evaluate the effect of THC on the KSHV ORF 50 promoter. To assay the effect of THC on the MHV 68 ORF 50 gene, a DNA fragment containing the 0.4 kb full length ORF 50 promoter (nucleotides 66242-66652) cloned upstream of the firefly luciferase was utilized. About 5 μg KSHV ORF 50 firefly plasmid DNA was transfected into BCBL-1 cells. About 5 μg MHV 68 ORF 50 firefly plasmid DNA was transfected Into NIH312 cells. Control renilla luciferase expression vector (under the control of the CMV immediate early promoter) was included and co-transfected along with the ORF 50 reporter constructs. […] Luciferase activities were determined using a dual luminometer.
(§3) To evaluate the effect of THC on the MHV 68 and KSHV ORF 50 promoters, luciferase reporter assays were performed. […] Luciferase activities were determined using a dual luminometer. […]

NIH3T12 cells [2] = test: Cell division inhibition (cell counts) in NIH3T12 cells; type: cell-based, Murine; settings: Mus musculus, 48 h, NIH3T12, two days, read-out: 50% cell division inhibitory concentration
Experimental: (§4) The effect of higher THC concentrations on cell division was also determined. Exponentially growing BCBL-1 or NIH12 cells were cultured for two days in the presence of various concentrations of THC or DMSO and cell counts were determined. The 50% cell division inhibitory concentration of THC for BCBL-1 cells was around 33 μM. NIH3T12 cells were less sensitive and the 50% inhibitory concentration was around 99 μM (not shown).

KSHV [3] = test: Gardella gel antiviral assay, KSHV DNA replication in BCBL-1 cells
[4] = test system: Owl monkey kidney (OMK) cells; test: Cytotoxicity in owl monkey kidney (OMK) cells; type: cell-based; settings: analogous experiment
Text: (§5) Because the observed effects might be due to a non-specific toxic effect of THC, the inventors tested whether THC alters cell division or morphology in NIH3T12 and owl monkey kidney (OMK) cells. […].

[5] = test system: CMV immediate early promoter; test: Dual luciferase promoter assay, control CMV promoter in BCBL-1 cells; type: cell-based; settings: 5 μg/ml
Text: as §1, §2, §3

HSV-1 [6] = test: HSV-1 plaque formation and virus yield in NIH3T12 cells; type: cell-based
BCBL-1 cells = test: Cell division inhibition (cell counts) in BCBL-1 cells; type: cell-based; settings: BCBL1, 48 h, BCBL-1, two days, read-out: 50% cell division inhibitory concentration
Experimental: as §4

HVS = test: Cytopathic effect and virus yield reduction, HVS in owl monkey kidney cells; type: cell-based, herpesvirus saimiri (HVS)
KSHV ORF 50 promoter = test: Dual luciferase promoter assay, KSHV ORF 50 promoter in BCBL-1 cells; type: cell-based; settings: 5 μg/ml, 48 hours
Text: as §1, §2, §3

NIH3T12 cells [7] = test: Cytotoxicity (monolayer growth and morphology) in NIH3T12 cells; type: cell-based, Murine; settings: 0.6-10 μg/ml, 2 days
Text: as §5

HSV-1 [8] = test: HSV-1 replication in OMK cells; type: cell-based
Experimental: Control cultures were treated with […]. IC50 was determined by measuring virus titers in THC treated and control samples after one cycle of freeze-thawing of the cultures. Additional controls were uninfected cells grown in the presence of THC or DMSO. THC or DMSO were present throughout the experiment.
The inventors next examined whether or not the THC inhibitory effect can be observed against other herpesviruses and tested whether drug treatment suppresses the replication of the alpha herpesvirus, HSV-1. […] . […] HSV-1 replication in OMK was also unaffected by THC in an analogous experiment (not shown).

EBV = test: Gardella gel antiviral assay, TPA-induced EBV replication in P3HR1 cells; type: cell-based, Epstein-Barr virus (EBV); settings: P3HR1 cells with TPA
KSHV [9] = test system: KSHV
Experimental: BCBL-1 cells were incubated with or without THC and in the presence of these compounds.

KSHV, MHV 68 = settings: FIG. 4 comparison; cited from earlier work
[10] = cited from earlier work

Compound: CCCCCc1cc(O)c2c(c1)OC(C)(C)[C@@H]1CCC(C)=C[C@@H]21 [THC, Δ-9 Tetrahydrocannabinol]
- Cytopathic effect of MHV 68, appearance of infected cells (MHV 68; 0.6 μg/ml, 48 hours, NIH3T12): intermediate between uninfected cells and the full cytopathic effect
- Cytopathic effect of MHV 68, appearance of infected cells (MHV 68; 1.25 μg/ml or higher, 48 hours, NIH3T12): indistinguishable from uninfected control cells
- Inhibition of virus yield (MHV 68; 10 μg/ml, 48 hours, NIH3T12): over 300 fold
- Potency and selectivity against MHV 68 compared with acyclovir, ganciclovir and foscarnet (MHV 68; FIG. 4 comparison): even more potent and selective
- IC50 (MHV 68; Gammaherpesvirinae sp., in Mus musculus, 48 h, read-out: 50% inhibitory concentration (IC50), MHV 68 virus yield): ~0.6 µg/mL and ~1.9 µM
- Effect on MHV 68 virus yield / replication (MHV 68; NIH3T12 cells): inhibits MHV 68 virus yield; also recorded: highly significantly inhibited; also recorded: strongly inhibited
- Reduction of control CMV promoter activity [1]: 35%
- IC50 (NIH3T12 cells [2]): ~99 µM
- Potency and selectivity against KSHV compared with known antiviral drugs (KSHV [3]; FIG. 4 comparison): potent and selective antiviral agent
- IC50 (KSHV [3]; Human gammaherpesvirus 8, BCBL1, 72 h, read-out: 50% inhibitory concentration (IC50), KSHV linear DNA): 1 µg/mL and ~3.3 µM
- Toxicity [4]: no toxicity
- Effect on co-transfected CMV promoter [5]: slightly stimulated
- HSV-1 plaque development (HSV-1 [6]; 0.6-10 μg/ml, 3 days, NIH3T12): indistinguishable from those in control cultures
- Effect on HSV-1 virus yield (HSV-1 [6]; NIH3T12, multiplicity of 2, 24 hours): no significant inhibitory effect
- IC50 (BCBL-1 cells): ~33 µM
- HVS virus yield reduction / replication (HVS): strongly inhibited
- Inhibition of KSHV ORF 50-driven luciferase activity (KSHV ORF 50 promoter): ~4 fold
- Cell growth and morphology (NIH3T12 cells [7]): no altered morphology
- HSV-1 replication (HSV-1 [8]): unaffected
- Effect on EBV linear DNA synthesis (EBV; autoradiogram): inhibited EBV linear DNA synthesis
- IC50 (EBV; human gammaherpesvirus 4, P3HR-1, read-out: 50% inhibitory concentration (IC50), EBV linear DNA synthesis): ~0.9 µg/mL and ~3.1 µM

Compound: SR144528
- Effect on spontaneous KSHV reactivation (KSHV [9]; BCBL-1, without THC): no effect
- Reversal of inhibition of linear DNA synthesis by THC (KSHV [9]; both antagonists, 1.25 μg/ml THC): reversed
- Reversal of THC inhibition of KSHV DNA synthesis (KSHV [9]; single receptor antagonist): not reversed

Compound: Nc1ccn(C[C@@H](CO)OCP(=O)(O)O)c(=O)n1 [Cidofovir]
- Relative potency in in vitro antiviral experiments (KSHV, MHV 68): most potent
- Side effects in humans [10]: toxic to the kidney
